Results reported in PubChem BioAssay (NCI).
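Method: 48-hour compound exposure of cells in 96-well plates, five concentrations, linear interpolation of endpoints. At the GI50, growth is halved. TGI denotes the concentration required for complete inhibition of growth.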

How the values were obtained:
Assay in all cases: NCI anticancer screen, dose series, 48 h
SK-MEL-5 melanoma = system: SK-MEL-5 melanoma
EKVX NSCLC = system: EKVX NSCLC
NCI-H460 lung = system: NCI-H460 lung
KM12 colon = system: KM12 colon
NCI-H226 lung = system: NCI-H226 lung
RPMI-8226 leukemia = system: RPMI-8226 leukemia
CCRF-CEM leukemia = system: CCRF-CEM leukemia
UACC-62 melanoma = system: UACC-62 melanoma
NCI-H522 lung = system: NCI-H522 lung
HOP-92 NSCLC = system: HOP-92 NSCLC

Row | Compound | GI50 (SK-MEL-5 melanoma) [µM] | TGI (SK-MEL-5 melanoma) [µM] | GI50 (EKVX NSCLC) [µM] | TGI (EKVX NSCLC) [µM] | GI50 (NCI-H460 lung) [µM] | TGI (NCI-H460 lung) [µM] | GI50 (KM12 colon) [µM] | TGI (KM12 colon) [µM] | GI50 (NCI-H226 lung) [µM] | TGI (NCI-H226 lung) [µM] | GI50 (RPMI-8226 leukemia) [µM] | TGI (RPMI-8226 leukemia) [µM] | GI50 (CCRF-CEM leukemia) [µM] | TGI (CCRF-CEM leukemia) [µM] | GI50 (UACC-62 melanoma) [µM] | TGI (UACC-62 melanoma) [µM] | GI50 (NCI-H522 lung) [µM] | TGI (NCI-H522 lung) [µM] | GI50 (HOP-92 NSCLC) [µM] | TGI (HOP-92 NSCLC) [µM]
1 | N#Cc1c(-c2ccccc2)nc2c(c(-c3ccccc3)nn2-c2ccccc2)c1-c1ccc(O)cc1 | 1.76 | 3.19 | 1.92 | 5.1 | 1.73 | 3.26 | 2.02 | 4.76 | 1.97 | 4.51 | 2.42 | 17.9 | 3.13 | 13.4 | 1.7 | 3.18 | 2.32 | 6.03 | 2.06 | 4.21
2 | Cc1noc(C)c1-c1ccc2[nH]c(=O)n3c2c1OC[C@@H]3c1ccccn1 | 3.81 | > 100 | 2.39 | > 100 | > 100 | > 100 | > 27.8 | > 100 | 2.22 | > 100 | 0.267 | > 20.2 | 2.07 | > 100 | 0.302 | > 100 | 2.64 | > 100 | 0.323 | > 100
3 | Cn1c(N)nc2c(nc(OCc3ccccc3)n2C2OC(CO)C(O)C2O)c1=O (centres undefined) | – | > 100 | – | > 100 | – | > 100 | – | > 100 | – | > 100 | – | > 100 | – | > 100 | – | > 100 | – | > 100 | – | > 100
4 | COc1ccc2c(c1)C=CC(C#N)N2C(=O)c1ccccc1 (centres undefined) | < 0.01 | 4.68 | < 0.01 | > 100 | < 0.01 | 36.7 | < 0.01 | > 100 | 4.16 | > 100 | < 0.01 | > 100 | < 0.01 | > 100 | < 0.01 | > 100 | < 0.01 | 0.188 | – | 45.9
5 | Cc1c(C(=O)NN)nnn1-c1ccnc2c(C(F)(F)F)cccc12 | > 100 | > 100 | > 100 | > 100 | > 100 | > 100 | > 100 | > 100 | > 100 | > 100 | > 100 | > 100 | > 100 | > 100 | > 100 | > 100 | > 100 | > 100 | > 100 | > 100
6 | CCN(CCO)CCNc1ccc(C)c2sc3cc(Cl)ccc3c(=O)c12 | 1.54 | 2.88 | 1.62 | 3.18 | 1.41 | 3.03 | 1.67 | 3.36 | 1.39 | 3.12 | 1.86 | 4.6 | 1.52 | 3.46 | 1.73 | 3.31 | 1.56 | 3.21 | 1.56 | 8.94
7 | CCCSc1cc(Cl)nc(N)n1 | > 100 | > 100 | > 100 | > 100 | > 100 | > 100 | > 100 | > 100 | > 100 | > 100 | > 100 | > 100 | > 100 | > 100 | > 100 | > 100 | > 100 | > 100 | 14.8 | > 100
8 | CNC(=O)c1cc(Oc2ccc(NC(=O)Nc3ccc(Cl)c(OC(F)(F)F)c3)c(F)c2)ccn1 | 1.63 | 5.46 | 1.55 | 23.6 | 2.22 | 17.6 | 1.17 | 9.09 | 2.5 | 21.4 | 1.32 | 7.85 | 1.94 | > 33.2 | 1.34 | 10 | 0.971 | 14.8 | 1.53 | 16.8
9 | O=C(N/N=C/c1ccc(Cl)cc1Cl)c1ccccc1Nc1cccc(C(F)(F)F)c1 | 26.5 | > 100 | 12.2 | 80.1 | 6.98 | > 100 | 9.07 | > 100 | 3.67 | 43.5 | 2.87 | 46.3 | 3.51 | 19.3 | 13.3 | 58.4 | 3.34 | 20.7 | 1.5 | 3.57
10 | C[C@H]1CCC/C=C/[C@@H]2C[C@H](N)C[C@H]2[C@H](O)/C=C/C(=O)O1 | 77.1 | > 100 | > 100 | > 100 | > 100 | > 100 | 71.4 | > 100 | > 100 | > 100 | > 100 | > 100 | 83.2 | > 100 | > 100 | > 100 | > 100 | > 100 | > 100 | > 100
11 | CCCCCCNc1nc(NCCCCCC)c2[nH]c(NCCCCCC)nc2n1 | 12.7 | 25.2 | 5.51 | 30 | 5.37 | 19.5 | 8.01 | 21.1 | 15.4 | 34.3 | 1.86 | 10.3 | 4.95 | 35.6 | 13.4 | 28.6 | 2.14 | 7.68 | 5.43 | 16.9
12 | CC1=Nc2c(ccc3c2C(=O)c2ccccc2C3=O)NC(c2ccncc2)C1 (centres undefined) | – | > 100 | > 100 | > 100 | > 100 | > 100 | – | > 100 | > 100 | > 100 | 89.9 | > 100 | – | > 100 | – | > 100 | – | > 100 | > 100 | > 100
13 | CS(=O)(=O)Nc1ccc(-c2ccc3c(NC(=O)C4CC4)n[nH]c3c2)cc1 | > 11.9 | > 25 | > 25 | > 25 | > 22.5 | > 25 | > 16.2 | > 25 | > 14.9 | > 25 | 13.7 | > 25 | 24.2 | > 25 | 22.7 | > 25 | > 25 | > 25 | > 25 | > 25
14 | CCOC(=O)[C@@H](C)C[C@H](Cc1ccccc1)NC(=O)c1csc([C@@H](C[C@H](C(C)C)N(C)C(=O)[C@@H](NC(=O)[C@H]2CCCCN2C)C(C)(C)C)OC(C)=O)n1 | < 0.00167 | 0.00254 | < 0.00167 | > 16.7 | < 0.00167 | > 5.37 | < 0.00167 | 0.215 | < 0.00167 | 0.104 | < 0.00167 | > 6.36 | < 0.00167 | > 16.7 | < 0.00167 | > 16.7 | < 0.00167 | 0.0644 | < 0.00167 | 1.44
15 | CN1CCN(Cc2ccc(NC(=O)c3ccc(C(C)(C)C)c(C#Cc4cnc5cccnn45)c3)cc2C(F)(F)F)CC1 | 2.16 | 4.86 | 5.8 | 19.3 | 2.13 | 4.52 | 0.861 | 2.38 | 4.63 | 20.1 | 2.54 | 6.11 | 1.93 | 4.63 | 2.08 | 4.37 | 2.2 | 3.95 | 12.1 | 27.1
16 | Cc1ncc(NC(=O)c2ccc(CN3CCN(C)CC3)c(C(F)(F)F)c2)cc1Nc1nccc(-c2cccnc2)n1 | 16.3 | 30.2 | 17.4 | 31.4 | 17.4 | 33 | 15.3 | 30.2 | 19.5 | 39.7 | 10 | 49.7 | 14.4 | 91.9 | 13.2 | 26.2 | 17.2 | 33.8 | 4.5 | 21
17 | C=C(C)[C@@H]1CC[C@@]2(C(=O)O)CC[C@]3(C)C(CCC4[C@@]5(C)CCC(OS(=O)(=O)c6ccccc6)C(C)(C)C5CC[C@]43C)C12 (some centres undefined) | 1.4 | 17 | 2.58 | 19.3 | 3.36 | 15.5 | 3.37 | 15 | 7.07 | 28.3 | 1.69 | > 100 | 5.28 | > 100 | 2.55 | 19.3 | 2.36 | 13.2 | 2.47 | 16.2
18 | NCCN1CCN(c2nccc(-c3ccc4ccccc4c3)n2)CC1 | 1.67 | 3.05 | 1.83 | 4.08 | 1.91 | 3.69 | 1.85 | 3.48 | 2.03 | 5.66 | 2.08 | 5.72 | 1.85 | 4.37 | 1.87 | 3.65 | 1.97 | 3.84 | 1.61 | 4.01
19 | CC(C)(C)c1nc2c(o1)C(=Nc1ccc(F)cc1)c1ccccc1C2=O | – | 3.45 | – | > 83.5 | – | 21.5 | – | 52.5 | – | 34.3 | – | > 100 | – | > 100 | – | 6.62 | – | 20.5 | – | > 97.7
20 | CC1(C)CCc2cc3c(cc2O1)OCCC3=O | – | > 100 | – | > 100 | – | > 100 | – | > 100 | – | > 100 | – | > 100 | – | > 100 | – | > 100 | – | > 100 | – | > 100
